Reference: patent US12552766B2, “Pesticidally active azole amide compounds” (SYNGENTA CROP PROTECTION AG, priority 2019, dated 2026)

How the values were obtained:
Type in all cases: in vivo
[1] = system: Diabrotica Balteata (Corn Root Worm); assay: Example B1: Diabrotica balteata, spray on maize sprouts; conditions: 96 h, application rate of 200 ppm, L2 larvae, 4 days after infestation, read-out: control in at least one of the two categories (mortality or growth inhibition)
Procedure: Maize sprouts placed onto an agar layer in 24-well microtiter plates were treated with aqueous test solutions prepared from 10′000 ppm DMSO stock solutions by spraying. After drying, the plates were infested with L2 larvae (6 to 10 per well). The samples were assessed for mortality and growth inhibition in comparison to untreated samples 4 days after infestation.

[2] = system: Chilo suppressalis (Striped Rice Stemborer); assay: Example B4: Chilo suppressalis, artificial diet; conditions: 144 h, application rate of 200 ppm, L2 larvae, 6 days after infestation, read-out: control in at least one of the three categories (mortality, anti-feedant effect, or growth inhibition)
Procedure: 24-well microtiter plates with artificial diet were treated with aqueous test solutions prepared from 10′000 ppm DMSO stock solutions by pipetting. After drying, the plates were infested with L2 larvae (6-8 per well). The samples were assessed for mortality, anti-feeding effect, and growth inhibition in comparison to untreated samples 6 days after infestation. Control of Chilo suppressalis by a test sample is given when at least one of the categories mortality, anti-feedant effect, and growth inhibition is higher than the untreated sample.

[3] = system: Plutella xylostella (Diamond Back Moth); assay: Example B5: Plutella xylostella, artificial diet, 24-well; conditions: 192 h, application rate of 200 ppm, eggs, 8 days after infestation, read-out: control in at least one of the two categories (mortality or growth inhibition)
Procedure: 24-well microtiter plates with artificial diet were treated with aqueous test solutions prepared from 10′000 ppm DMSO stock solutions by pipetting. After drying, Plutella eggs were pipetted through a plastic stencil onto a gel blotting paper and the plate was closed with it. The samples were assessed for mortality and growth inhibition in comparison to untreated samples 8 days after infestation.

[4] = system: Spodoptera littoralis (Egyptian Cotton Leaf Worm); assay: Example B9: Spodoptera littoralis, spray on cotton leaf discs; conditions: foliar, 72 h, application rate of 200 ppm, L1 larvae, 3 days after infestation, read-out: control in at least one of the three categories (mortality, anti-feedant effect, or growth inhibition)
Procedure: Cotton leaf discs were placed onto agar in 24-well microtiter plates and sprayed with aqueous test solutions prepared from 10′000 ppm DMSO stock solutions. After drying the leaf discs were infested with five L1 larvae. The samples were assessed for mortality, anti-feeding effect, and growth inhibition in comparison to untreated samples 3 days after infestation. Control of Spodoptera littoralis by a test sample is given when at least one of the categories mortality, anti-feedant effect, and growth inhibition is higher than the untreated sample.

CC(NC(=O)c1cc(C(F)(F)F)cc(C(F)(F)F)c1)c1nc(Br)nn1-c1ncc(OC(F)F)cn1 (stereo not shown) [Compound P2, N-[1-[5-bromo-2-[5-(difluoromethoxy)pyrimidin-2-yl]-1,2,4-triazol-3-yl]ethyl]-3,5-bis(trifluoromethyl) benzamide]
≥ 80%: percent control (mortality or growth inhibition) at 200 ppm [1] | percent control (mortality, anti-feedant effect or growth inhibition) at 200 ppm [2] | percent control (mortality or growth inhibition) at 200 ppm [3] | percent control (mortality, anti-feedant effect or growth inhibition) at 200 ppm [4]

CC(NC(=O)c1cc(SC(F)(F)F)cc(C(F)(F)F)c1)c1nc(Br)nn1-c1ccc(C#N)cn1 (stereo not shown) [Compound P5, N-[1-[5-bromo-2-(5-cyano-2-pyridyl)-1,2,4-triazol-3-yl]ethyl]-3-(trifluoromethyl)-5-(trifluoromethylsulfanyl)benzamide]
≥ 80%: percent control (mortality or growth inhibition) at 200 ppm [1] | percent control (mortality, anti-feedant effect or growth inhibition) at 200 ppm [2] | percent control (mortality or growth inhibition) at 200 ppm [3] | percent control (mortality, anti-feedant effect or growth inhibition) at 200 ppm [4]

CC(NC(=O)c1cc(C(F)(F)F)cc(C(F)(F)F)c1)c1nc(Br)nn1-c1ccc(OC(F)F)cn1 (stereo not shown) [Compound P6, N-[1-[5-bromo-2-[5-(difluoromethoxy)-2-pyridyl]-1,2,4-triazol-3-yl]ethyl]-3,5-bis(trifluoromethyl) benzamide]
≥ 80%: percent control (mortality or growth inhibition) at 200 ppm [1] | percent control (mortality, anti-feedant effect or growth inhibition) at 200 ppm [2] | percent control (mortality or growth inhibition) at 200 ppm [3] | percent control (mortality, anti-feedant effect or growth inhibition) at 200 ppm [4]

CC(NC(=O)c1cc(OCC(F)F)cc(C(F)(F)F)c1)c1nc(Br)nn1-c1ccc(C#N)cn1 (stereo not shown) [Compound P33, N-[1-[5-bromo-2-(5-cyano-2-pyridyl)-1,2,4-triazol-3-yl]ethyl]-3-(2,2-difluoroethoxy)-5-(trifluoromethyl)benzamide]
≥ 80%: percent control (mortality, anti-feedant effect or growth inhibition) at 200 ppm [2] | percent control (mortality or growth inhibition) at 200 ppm [3] | percent control (mortality, anti-feedant effect or growth inhibition) at 200 ppm [4]

CC(NC(=O)c1cc(Cl)cc(C(F)(F)F)c1)c1nc(Br)nn1-c1ccc(OCC(F)(F)F)cn1 (stereo not shown) [Compound P37, N-[1-[5-bromo-2-[5-(2,2,2-trifluoroethoxy)-2-pyridyl]-1,2,4-triazol-3-yl]ethyl]-3-chloro-5-(trifluoromethyl) benzamide]
≥ 80%: percent control (mortality, anti-feedant effect or growth inhibition) at 200 ppm [2] | percent control (mortality or growth inhibition) at 200 ppm [3] | percent control (mortality, anti-feedant effect or growth inhibition) at 200 ppm [4]

CC(NC(=O)c1cc(OCC(F)(F)F)cc(C(F)(F)F)c1)c1nc(Br)nn1-c1ccc(OCC(F)(F)F)cn1 (stereo not shown) [Compound P39, N-[1-[5-bromo-2-[5-(2,2,2-trifluoroethoxy)-2-pyridyl]-1,2,4-triazol-3-yl]ethyl]-3-(2,2,2-trifluoroethoxy)-5-(trifluoromethyl) benzamide]
≥ 80%: percent control (mortality or growth inhibition) at 200 ppm [3] | percent control (mortality, anti-feedant effect or growth inhibition) at 200 ppm [4]

CC(NC(=O)c1cc(C(F)(F)F)cc(C(F)(F)F)c1)c1nc(C#N)nn1-c1ccc(C#N)cn1 (stereo not shown) [Compound P48, N-[1-[5-cyano-2-(5-cyano-2-pyridyl)-1,2,4-triazol-3-yl]ethyl]-3,5-bis(trifluoromethyl) benzamide]
≥ 80%: percent control (mortality or growth inhibition) at 200 ppm [1] | percent control (mortality, anti-feedant effect or growth inhibition) at 200 ppm [2] | percent control (mortality, anti-feedant effect or growth inhibition) at 200 ppm [4]

CC(NC(=O)c1cc(Br)cc(C(F)(F)F)c1)c1nc(Br)nn1-c1ccc(OCC(F)(F)F)cn1 (stereo not shown) [Compound P50, 3-bromo-N-[1-[5-bromo-2-[5-(2,2,2-trifluoroethoxy)-2-pyridyl]-1,2,4-triazol-3-yl]ethyl]-5-(trifluoromethyl) benzamide]
≥ 80%: percent control (mortality, anti-feedant effect or growth inhibition) at 200 ppm [2] | percent control (mortality or growth inhibition) at 200 ppm [3]
